In US20240207369A1, “In Vitro Drugs from Prodrugs and Use Thereof” (Brandenburgische Tehnische Universitat Cottbus-Senftenberg, priority 2021, published 2024) one finds ADP-induced platelet aggregation data, which are given here for one compound.

The assay has as its system human thrombocytes (platelets). Kind of assay: ADP-induced platelet aggregation in whole blood, impedance aggregometry (Multiplate Analyzer). The conditions noted are these: ADP 10 μM final; two-minute pre-incubation of the metabolite in blood of an apparently healthy subject; final metabolite concentration 0.31 mg per 1 mL; approx. 73% purity; FIG. 2. Type of assay: cell-based. Here is the method: Example of embodiment of the effect of a metabolite produced via peroxygenase on human platelets (blood platelets).
The metabolite is present as a powder (approx. 4 mg) in a dark container and is stored in a freezer at at least −80° C. until the solution is prepared. On the day of use, the drug is dissolved in 500 μl of a suitable sterile solvent (here: phosphate-buffered saline, PBS). Powder and solvent are mixed rigorously. The complete dissolution of the powder is to be visually checked. The mixture is stored on ice or at approx. 0° C. until use.
To test the functionality of the agent, the aggregation of human thrombocytes (platelets) in whole blood is determined by impedance aggregometry (Paniccia, R.; Antonucci, E.; Maggini, N.; Romano, E.; Gori, A. M.; Marcucci, R.; Prisco, D.; Abbate, R. Assessment of Platelet Function on Whole Blood by Multiple Electrode Aggregometry in High-Risk Patients with Coronary Artery Disease Receiving Antiplatelet Therapy. American journal of clinical pathology 2009, 131, 834-42, doi:10.1309/AJCPTE3K1SGAPOIZ). For the test, approximately 5 ml of fresh whole blood is collected from a visible vein at the elbow (cubital vein) of a subject by an appropriately trained person using appropriate sterile blood collection equipment. The blood is collected into a collection vessel designed for this purpose (e.g. Sarstedt Monovette, Sarstedt, Numbrecht, Germany). […]

As for `COC(=O)[C@H](c1ccccc1Cl)N1CCC(S)C(=CC(=O)O)C1` (stereo partly drawn) [metabolite, 2-(1-((S)-1-(2-chlorophenyl)-2-methoxy-2-oxoethyl)-4-mercaptopiperidin-3-ylidene)acetic acid], the ADP-induced platelet aggregation result is recorded as “reduction of ADP-induced platelet aggregation”.
